Data: PMC9059126, “Structure-Based Design of a Novel Class of Autotaxin Inhibitors Based on Endogenous Allosteric Modulators” (Journal of Medicinal Chemistry, 2022)

The molecules below were run against ATX (Rattus norvegicus, UniProt Q64610) (assay: Choline oxidase-coupled choline-release assay of LPC hydrolysis by ATX). Settings: LPC hydrolysis assay, 20 nM ATX.
Procedure: The biochemical studies of ATX lysoPLD activity were performed with ATX. Activity was measured by a coupled reaction with 1 U mL^–1 choline oxidase and 2 U mL^–1 horseradish peroxidase (HRP) and 2 mM homovanillic acid (HVA) (all from Sigma-Aldrich). For the assays, 14:0, 16:0, 18:1, and 20:0 LPC (Avanti Polar Lipids Inc.) were incubated with 20 nM ATX, reaching a final volume of 100 μL of the buffer, which contained 50 mM Tris, 0.01%, 50 mM CaCl2, Triton X-100, pH 7.4. Steady-state choline release was measured at 37 °C by HVA fluorescence at λex/λem = 320/460 nm in Corning 96- or 384-well OptiPlate (Sigma-Aldrich) and with a Pherastar plate reader (BMG Labtech). […] The resulting fluorescence intensity signal over time was used to model all inhibitor concentrations simultaneously using the following formula, where vmax and vmin were fitted for the minimum and maximum relative velocities, respectively, and ci corresponds to the inhibitor concentration for each assay[20]

Row | Compound | IC50 [nM] | Residual Activity (%)
1 | C[C@H](CCC(=O)NCCOc1ccc(S(N)(=O)=O)cc1)[C@H]1CC[C@H]2C3[C@@H](O)C[C@@H]4C[C@H](O)CC[C@]4(C)[C@H]3CC[C@]12C (stereo partly drawn) [Compound 11] | > 10000 | 31
2 | C[C@H](CCC(=O)N1CCC(Oc2ccc(B3OC(C)(C)C(C)(C)O3)cc2)CC1)[C@H]1CC[C@H]2C3[C@@H](O)C[C@@H]4C[C@H](O)CC[C@]4(C)[C@H]3CC[C@]12C (stereo partly drawn) [Compound 19] | 80 | 0
3 | C[C@H](CCC(=O)N1CC[C@H](Oc2ccc(B3OC(C)(C)C(C)(C)O3)cc2)C1)[C@H]1CC[C@H]2C3[C@@H](O)C[C@@H]4C[C@H](O)CC[C@]4(C)[C@H]3CC[C@]12C (stereo partly drawn) [Compound 21] | 200 | 10
4 | C[C@H](CCC(=O)NCCCOc1ccc(S(N)(=O)=O)cc1)[C@H]1CC[C@H]2C3[C@@H](O)C[C@@H]4C[C@H](O)CC[C@]4(C)[C@H]3CC[C@]12C (stereo partly drawn) [Compound 10] | 400 | 75
5 | C[C@H](CCC(=O)N1CC[C@@H](Oc2ccc(B3OC(C)(C)C(C)(C)O3)cc2)C1)[C@H]1CC[C@H]2C3[C@@H](O)C[C@@H]4C[C@H](O)CC[C@]4(C)[C@H]3CC[C@]12C (stereo partly drawn) [Compound 20] | 210 | 8
6 | C[C@H](CCC(=O)NCCCOc1cccc(B2OC(C)(C)C(C)(C)O2)c1)[C@H]1CC[C@H]2C3[C@@H](O)C[C@@H]4C[C@H](O)CC[C@]4(C)[C@H]3CC[C@]12C (stereo partly drawn) [Compound 15] | 150 | 1.7
7 | C[C@H](CCC(=O)NCCCOc1ccc([B-](F)(F)F)cc1)[C@H]1CC[C@H]2C3[C@@H](O)C[C@@H]4C[C@H](O)CC[C@]4(C)[C@H]3CC[C@]12C.[Na+] (stereo partly drawn) [Compound 17] | 70 | 1.1
8 | C[C@H](CCC(=O)NCCCCOc1ccc(S(N)(=O)=O)cc1)[C@H]1CC[C@H]2C3[C@@H](O)C[C@@H]4C[C@H](O)CC[C@]4(C)[C@H]3CC[C@]12C (stereo partly drawn) [Compound 12] | > 10000 | 66
9 | C[C@H](CCC(=O)NCCCOc1ccc(B2OC(C)(C)C(C)(C)O2)cc1)[C@H]1CC[C@H]2C3[C@@H](O)C[C@@H]4C[C@H](O)CC[C@]4(C)[C@H]3CC[C@]12C (stereo partly drawn) [Compound 16] | 70 | 0.3
10 | C[C@H](CCC(=O)NCCOc1ccc(B2OC(C)(C)C(C)(C)O2)cc1)[C@H]1CC[C@H]2C3[C@@H](O)C[C@@H]4C[C@H](O)CC[C@]4(C)[C@H]3CC[C@]12C (stereo partly drawn) [Compound 14] | 1500 | 1.4
11 | C[C@H](CCC(=O)NCCCOc1ccc(B(O)O)cc1)[C@H]1CC[C@H]2C3[C@@H](O)C[C@@H]4C[C@H](O)CC[C@]4(C)[C@H]3CC[C@]12C (stereo partly drawn) [Compound 18] | 50 | 0.6
12 | C[C@H](CCC(=O)NCCOc1cccc(B2OC(C)(C)C(C)(C)O2)c1)[C@H]1CC[C@H]2C3[C@@H](O)C[C@@H]4C[C@H](O)CC[C@]4(C)[C@H]3CC[C@]12C (stereo partly drawn) [Compound 13] | 14000 | 14.7

Same assay, conditions: ethyl-linked, para against meta

Row | Compound | fold increase in potency over meta-substituted pinacol boronate 13 [fold]
13 | C[C@H](CCC(=O)NCCOc1ccc(B2OC(C)(C)C(C)(C)O2)cc1)[C@H]1CC[C@H]2C3[C@@H](O)C[C@@H]4C[C@H](O)CC[C@]4(C)[C@H]3CC[C@]12C (stereo partly drawn) [Compound 14] | 10

Same assay, conditions: read-out: %Inhibition at 100 μM

Row | Compound | inhibition at 100 µM [%]
14 | COc1ccc(B(O)O)cc1 [Compound 7] | 37
15 | COc1ccc([B-](F)(F)F)cc1 [Compound 6] | 57
